The target in assay [1] is WT KRAS (Homo sapiens, UniProt P01116). The assay can be described thus: KRAS WT Probe Displacement Assay (TR-FRET, GDP-loaded). In kind it is binding. The text has this:
(§1) The synthetic routes of probe 1 and 2, which have been disclosed in PCT/CN2022/070676, are hereby incorporated herein.
In general terms: TR-FRET usually uses a lanthanide donor and a delayed reading to cut background.

The target in assay [2] is KRAS G12D (Homo sapiens, UniProt P01116, G12D). Put plainly: KRAS G12D Probe Displacement Assay (TR-FRET, GDP-loaded). In kind it is binding.
KRAS G12D, sequence (P01116 1-188 isoform P01116-2 G12D): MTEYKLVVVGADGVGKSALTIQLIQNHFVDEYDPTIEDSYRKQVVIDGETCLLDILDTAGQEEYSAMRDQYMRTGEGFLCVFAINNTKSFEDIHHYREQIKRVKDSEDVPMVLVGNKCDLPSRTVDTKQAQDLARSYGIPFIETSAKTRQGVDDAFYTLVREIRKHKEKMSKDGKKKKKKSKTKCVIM
Source text: as §1

Setting [3] is: KRAS WT, read-out: KRAS^WT Probe Displacement Assay IC50.
The mark [4] stands for this setting: KRAS G12D, read-out: KRAS^G12D Probe Displacement Assay IC50.

Molecules are shown by their SMILES. Read-outs that look alike come from different tables or passages of the source.

WT KRAS, sequence (P01116 1-188 isoform P01116-2): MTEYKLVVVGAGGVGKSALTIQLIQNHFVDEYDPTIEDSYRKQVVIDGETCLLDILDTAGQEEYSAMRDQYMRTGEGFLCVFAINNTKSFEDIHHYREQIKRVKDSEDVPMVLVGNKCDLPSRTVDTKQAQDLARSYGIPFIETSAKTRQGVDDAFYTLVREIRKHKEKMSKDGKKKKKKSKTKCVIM

With `Cc1cc(N)cc(-c2nc3c4c(nc(OCC5(CN6CCCC(C)(O)C6)CC5)nc4c2F)N2C[C@H]4CC[C@H](N4)[C@H]2CCO3)c1C(F)(F)F` (mixture of isomers) [Example 116, 1-((1-((((6aR,7S, 10R)-2-(5-amino-3-methyl-2-(trifluoromethyl)phenyl)-1-fluoro-5,6,6a,7,8,9,10,11-octahydro-4-oxa-3,11a,12,14,15-pentaaza-7,10-methanocyclohepta [4,5]cycloocta [1,2,3-de]naphthalen-13-yl)oxy)methyl)cyclopropyl)methyl)-3-methylpiperidin-3-ol], the values for the IC50 in assay [1] (setting [3]) and in assay [2] (setting [4]) were 3 to 1000 nM and 0.3 to 3 nM, respectively.

Take `Cc1cc(N)cc(-c2nc3c4c(nc(OCC5(CN6CCCC(C(F)(F)F)C6)CC5)nc4c2F)N2C[C@H]4CC[C@H](N4)[C@H]2CCO3)c1C(F)(F)F` (stereo partly drawn) [Example 118, 3-((6aR,7S,10R)-1-fluoro-13-((1-((3-(trifluoromethyl)piperidin-1-yl)methyl)cyclopropyl)methoxy)-5,6,6a,7,8,9,10,11-octahydro-4-oxa-3,11a,12,14,15-pentaaza-7,10-methanocyclohepta [4,5]cycloocta [1,2,3-de]naphthalen-2-yl)-5-methyl-4-(trifluoromethyl)aniline]: the half-maximal inhibitory concentration (IC50) is 3 to 1000 nM in assay [1] (setting [3]) and under 0.3 nM in assay [2] (setting [4]).

Consider `Cc1cc(N)cc(-c2nc3c4c(nc(OCC5(CN6CC7(C6)CC(F)(F)C7)CC5)nc4c2F)N2C[C@H]4CC[C@H](N4)[C@H]2CCO3)c1C(F)(F)F` [Example 176, 3-((6aR,7S,10R)-13-((1-((6,6-difluoro-2-azaspiro[3.3]heptan-2-yl)methyl)cyclopropyl)methoxy)-1-fluoro-5,6,6a,7,8,9,10,11-octahydro-4-oxa-3,11a,12,14,15-pentaaza[7,10]methanocyclohepta[4,5]cycloocta[1,2,3-de]naphthalen-2-yl)-5-methyl-4-(trifluoromethyl)aniline], for which the figures for the IC50 in assay [1] (setting [3]) and in assay [2] (setting [4]) were 3 to 1000 nM and under 0.3 nM, respectively.

Regarding `Cc1cc(N)cc(-c2nc3c4c(nc(OCC5(CN(C)C)CC5(F)F)nc4c2F)N2C[C@H]4CC[C@H](N4)[C@H]2CCO3)c1C(F)(F)F` (single isomer, unassigned) [Example 17], the IC50 in assay [1] (setting [3]) was 3 to 1000 nM; in assay [2] (setting [4]), under 0.3 nM.

For `Cc1cc(N)cc(-c2nc3c4c(nc(O[C@@H](C)[C@@H]5CC6(CN5C)CC6(F)F)nc4c2F)N2C[C@H]4CC[C@H](N4)[C@H]2CCO3)c1C(F)(F)F` (single isomer, unassigned) [Example 224], the IC50 is 3 to 1000 nM in assay [1] (setting [3]) and under 0.3 nM in assay [2] (setting [4]).

Consider `Cc1cc(N)cc(-c2nc3c4c(nc(OCC5(CN6CC7CC7C6)CC5)nc4c2F)N2C[C@H]4CC[C@H](N4)[C@H]2CCO3)c1C(F)(F)F` (stereo partly drawn) [Example 71, 3-((6aR,7S,10R)-13-((1-((3-azabicyclo[3.1.0]hexan-3-yl)methyl)cyclopropyl)methoxy)-1-fluoro-5,6,6a,7,8,9,10,11-octahydro-4-oxa-3,11a,12,14,15-pentaaza-7,10-methanocyclohepta[4,5]cycloocta [1,2,3-de]naphthalen-2-yl)-5-methyl-4-(trifluoromethyl)aniline], for which the IC50 was 3 to 1000 nM in assay [1] (setting [3]) and under 0.3 nM in assay [2] (setting [4]).

Turning to `Cc1cc(N)cc(-c2nc3c4c(nc(O[C@H]5C[C@@H]6C[C@H]5CN(C)C6)nc4c2F)N2C[C@H]4CC[C@H](N4)[C@H]2CCO3)c1C(F)(F)F` [Example 198, 3-((6aR,7S,10R)-1-fluoro-13-(((1S,5S,6S)-3-methyl-3-azabicyclo[3.2.1]octan-6-yl)oxy)-5,6,6a,7,8,9,10,11-octahydro-4-oxa-3,11a,12,14,15-pentaaza-7,10-methanocyclohepta[4,5]cycloocta[1,2,3-de]naphthalen-2-yl)-5-methyl-4-(trifluoromethyl)aniline], the IC50 in assay [1] (setting [3]) is 3 to 1000 nM; in assay [2] (setting [4]), under 0.3 nM.

Consider `Cc1cc(N)cc(-c2nc3c4c(nc(OCC5(CN6C[C@H]7C[C@H]7[C@H]6CO)CC5)nc4c2F)N2C[C@H]4CC[C@H](N4)[C@H]2CCO3)c1C(F)(F)F` [Example 98, ((1R,2S,5S)-3-((1-((((6aR,7S,10R)-2-(5-amino-3-methyl-2-(trifluoromethyl)phenyl)-1-fluoro-5,6,6a,7,8,9,10,11-octahydro-4-oxa-3,11a,12,14,15-pentaaza-7,10-methanocyclohepta [4,5]cycloocta[1,2,3-de]naphthalen-13-yl)oxy)methyl)cyclopropyl)methyl)-3-azabicyclo [3.1.0]hexan-2-yl) methanol], for which the results for the IC50 in assay [1] (setting [3]) and in assay [2] (setting [4]) were 3 to 1000 nM and under 0.3 nM, respectively.

Consider `Cc1cc(N)cc(-c2nc3c4c(nc(O[C@@H](C)[C@@H]5CCCN5CC5CC5)nc4c2F)N2C[C@H]4CC[C@H](N4)[C@H]2CCO3)c1C(F)(F)F` [Example 230, 3-((6aR,7S,10R)-13-((S)-1-((S)-1-(cyclopropylmethyl)pyrrolidin-2-yl)ethoxy)-1-fluoro-5,6,6a,7,8,9,10,11-octahydro-4-oxa-3,11a,12,14,15-pentaaza-7,10-methanocyclohepta[4,5]cycloocta[1,2,3-de]naphthalen-2-yl)-5-methyl-4-(trifluoromethyl)aniline], for which the IC50 in assay [1] (setting [3]) is 3 to 1000 nM; in assay [2] (setting [4]) it was under 0.3 nM.

For the compound `CN1CCN(C)C(C)(COc2nc3c4c(nc(-c5cc(N)cc(Cl)c5C(F)(F)F)c(F)c4n2)OCC[C@@H]2[C@@H]4CC[C@H](CN32)N4)C1` (single isomer, unassigned) [Example 3], the figures for the IC50 in assay [1] (setting [3]) and in assay [2] (setting [4]) were 3 to 1000 nM and under 0.3 nM, respectively.

Regarding `C=C1CN2C[C@H](F)C[C@]2(COc2nc3c4c(nc(-c5cc(N)cc(Cl)c5C(F)(F)F)c(F)c4n2)OCC[C@@H]2[C@@H]4CC[C@H](CN32)N4)C1` [Example 211, 3-chloro-5-((6aR,7aS,10R)-1-fluoro-13-(((2R,7aS)-2-fluoro-6-methylenetetrahydro-1H-pyrrolizin-7a(5H)-yl)methoxy)-5,6,6a,7,8,9,10,11-octahydro-4-oxa-3,11a,12,14,15-pentaaza-7,10-methanocyclohepta[4,5]cycloocta[1,2,3-de]naphthalen-2-yl)-4-(trifluoromethyl)aniline], the IC50 in assay [1] (setting [3]) is 3 to 1000 nM; in assay [2] (setting [4]) it was under 0.3 nM.

Take `Cc1cc(N)cc(-c2nc3c4c(nc(OCC5(CN6CC7C(C6)C7(F)F)CC5)nc4c2F)N2C[C@H]4CC[C@H](N4)[C@H]2CCO3)c1C(F)(F)F` (stereo partly drawn) [Example 168, 3-((6aR,7S,10R)-13-((1-((6,6-difluoro-3-azabicyclo[3.1.0]hexan-3-yl)methyl)cyclopropyl)methoxy)-1-fluoro-5,6,6a,7,8,9,10,11-octahydro-4-oxa-3,11a,12,14,15-pentaaza-7,10-methanocyclohepta[4,5]cycloocta[1,2,3-de]naphthalen-2-yl)-5-methyl-4-(trifluoromethyl)aniline]: the IC50 in assay [1] (setting [3]) was 3 to 1000 nM; in assay [2] (setting [4]), under 0.3 nM.

For the compound `Cc1cc(N)cc(-c2nc3c4c(nc(OCC5(CN6CCN(C7COC7)CC6)CC5)nc4c2F)N2C[C@H]4CC[C@H](N4)[C@H]2CCO3)c1C(F)(F)F` [Example 191, 3-((6aR,7S,10R)-1-fluoro-13-((1-((4-(oxetan-3-yl)piperazin-1-yl)methyl)cyclopropyl)methoxy)-5,6,6a,7,8,9,10,11-octahydro-4-oxa-3,11a,12,14,15-pentaaza-7,10-methanocyclohepta[4,5]cycloocta[1,2,3-de]naphthalen-2-yl)-5-methyl-4-(trifluoromethyl)aniline], the IC50 was 3 to 1000 nM in assay [1] (setting [3]) and under 0.3 nM in assay [2] (setting [4]).

As to `Cc1cc(N)cc(-c2nc3c4c(nc(OCC5(C)CN(CC6CC6)CC/C5=C\F)nc4c2F)N2C[C@H]4CC[C@H](N4)[C@H]2CCO3)c1C(F)(F)F` (single isomer, unassigned) [Example 238], the results for the IC50 in assay [1] (setting [3]) and in assay [2] (setting [4]) were 3 to 1000 nM and under 0.3 nM, respectively.

For `CN(C)C[C@@]1(COc2nc3c4c(nc(-c5cc(N)cc(Cl)c5C(F)(F)F)c(F)c4n2)OCC[C@@H]2[C@@H]4CC[C@H](CN32)N4)CC1(F)F` [Example 45, 3-chloro-5-((6aR,7S,10R)-13-(((R)-1-((dimethylamino)methyl)-2,2-difluorocyclopropyl)methoxy)-1-fluoro-5,6,6a,7,8,9,10,11-octahydro-4-oxa-3,11a,12,14,15-pentaaza-7,10-methanocyclohepta[4,5]cycloocta[1,2,3-de]naphthalen-2-yl)-4-(trifluoromethyl)aniline], the figures for the IC50 in assay [1] (setting [3]) and in assay [2] (setting [4]) were 0.3 to 3 nM and under 0.3 nM, respectively.

Regarding `Cc1cc(N)cc(-c2nc3c4c(nc(O[C@@H](C)[C@@H]5C[C@@H](F)CN5C)nc4c2F)N2C[C@H]4CC[C@H](N4)[C@H]2CCO3)c1C(F)(F)F` [Example 74, 3-((6aR,7S,10R)-1-fluoro-13-((S)-1-((2S,4R)-4-fluoro-1-methylpyrrolidin-2-yl)ethoxy)-5,6,6a,7,8,9,10,11-octahydro-4-oxa-3,11a,12,14,15-pentaaza-7,10methanocyclohepta[4,5]cycloocta [1,2,3-de]naphthalen-2-yl)-5-methyl-4-(trifluoromethyl)aniline], the IC50 in assay [1] (setting [3]) is 3 to 1000 nM; in assay [2] (setting [4]) it was under 0.3 nM.

With `Cc1cc(N)cc(-c2nc3c4c(nc(OCC5(C)CC(F)CN(C6CCOCC6)C5)nc4c2F)N2C[C@H]4CC[C@H](N4)[C@H]2CCO3)c1C(F)(F)F` (single isomer, unassigned) [Example 234], the values for the IC50 in assay [1] (setting [3]) and in assay [2] (setting [4]) were 3 to 1000 nM and 0.3 to 3 nM, respectively.

With `Cc1cc(N)cc(-c2nc3c4c(nc(OCC5(CN6CCC(F)(F)C6)CC5)nc4c2F)N2C[C@H]4CC[C@H](N4)[C@H]2CCO3)c1C(F)(F)F` [Example 89, 3-((6aR,7S,10R)-13-((1-((3,3-difluoropyrrolidin-1-yl)methyl)cyclopropyl)methoxy)-1-fluoro-5,6,6a,7,8,9,10,11-octahydro-4-oxa-3,11a,12,14,15-pentaaza-7,10-methanocyclohepta [4,5]cycloocta [1,2,3-de]naphthalen-2-yl)-5-methyl-4-(trifluoromethyl) aniline], the IC50 is 3 to 1000 nM in assay [1] (KRAS^WT Probe Displacement Assay IC50, KRAS WT) and under 0.3 nM in assay [2] (KRAS^G12D Probe Displacement Assay IC50, KRAS G12D).

The IC50 is the concentration needed to halve the response being measured.

Values taken from patent US20260347373A1, “HETEROCYCLIC COMPOUNDS, COMPOSITIONS THEREOF, AND METHODS OF TREATMENT THEREWITH” (BeOne Medicines I GmbH, priority 2023, published 2026).
